Measured values as given in ChEMBL document CHEMBL1201862, “PubChem BioAssay data set” (2004).
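All cell lines were grown in 96-well plates and treated with compound for 48 hours. At the GI50, growth is halved.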 Calls of active or inactive are those of the source. Cut-off read from the data, not from the text of the source: active = GI50 up to about 1.1 µM and inactive = higher.

Tests used:
Assay in all cases: NCI anticancer screen, dose series, 48 h
A549 = system: A549
COLO 205 = system: COLO 205
HCT-116 = system: HCT-116
HL-60 = system: HL-60
HOP-62 = system: HOP-62
HOP-92 = system: HOP-92
IGROV-1 = system: IGROV-1
M14 = system: M14
MOLT-4 = system: MOLT-4
OVCAR-5 = system: OVCAR-5
OVCAR-8 = system: OVCAR-8
RPMI-8226 = system: RPMI-8226
SF-268 = system: SF-268
SK-MEL-28 = system: SK-MEL-28
SK-MEL-5 = system: SK-MEL-5
TK-10 = system: TK-10
UACC-257 = system: UACC-257
UACC-62 = system: UACC-62

Compound	GI50 (A549)	GI50 (COLO 205)	GI50 (HCT-116)	GI50 (HL-60)	GI50 (HOP-62)	GI50 (HOP-92)	GI50 (IGROV-1)	GI50 (M14)	GI50 (MOLT-4)	GI50 (OVCAR-5)	GI50 (OVCAR-8)	GI50 (RPMI-8226)	GI50 (SF-268)	GI50 (SK-MEL-28)	GI50 (SK-MEL-5)	GI50 (TK-10)	GI50 (UACC-257)	GI50 (UACC-62)
Cc1[nH]c2ccccc2c1C1=NO/C(=N\O)C(c2c(C)[nH]c3ccccc23)C1 (centres undefined)	38.6 µM (inactive)	19.7 µM (inactive)	28.3 µM (inactive)	20.5 µM (inactive)	21.7 µM (inactive)	20.8 µM (inactive)	34.8 µM (inactive)	26.6 µM (inactive)	21.4 µM (inactive)	50 µM (inactive)	56.5 µM (inactive)	34.5 µM (inactive)	46 µM (inactive)	52.5 µM (inactive)	19.9 µM (inactive)	54 µM (inactive)	71.3 µM (inactive)	19.9 µM (inactive)
CC(C)(C)C(=O)OC12/C(=N/O)CCCCCC1c1ccccc12 (centres undefined)	17.8 µM (inactive)	17 µM (inactive)	14.4 µM (inactive)	18.2 µM (inactive)	21.7 µM (inactive)	–	16.1 µM (inactive)	16.9 µM (inactive)	14.5 µM (inactive)	15.3 µM (inactive)	19.3 µM (inactive)	11.9 µM (inactive)	16.4 µM (inactive)	18.5 µM (inactive)	17.8 µM (inactive)	15.9 µM (inactive)	15 µM (inactive)	17.4 µM (inactive)
COc1cccc(/C=C(/C(=O)O)c2cc(OC)c(OC)c(OC)c2)c1	> 100 µM (inactive)	> 100 µM (inactive)	> 100 µM (inactive)	66.5 µM (inactive)	> 100 µM (inactive)	92.3 µM (inactive)	> 100 µM (inactive)	> 100 µM (inactive)	> 100 µM (inactive)	–	> 100 µM (inactive)	> 100 µM (inactive)	> 100 µM (inactive)	> 100 µM (inactive)	> 100 µM (inactive)	> 100 µM (inactive)	> 100 µM (inactive)	> 100 µM (inactive)
COc1ccc(N2C(=O)/C(=C/c3ccc(N(CCC#N)CCC#N)cc3C)N=C2/C=C\c2ccccc2)cc1	53 µM (inactive)	26.7 µM (inactive)	76.6 µM (inactive)	92.7 µM (inactive)	24.4 µM (inactive)	> 100 µM (inactive)	68.4 µM (inactive)	27.1 µM (inactive)	34.3 µM (inactive)	> 100 µM (inactive)	42.7 µM (inactive)	41.1 µM (inactive)	22.6 µM (inactive)	31.4 µM (inactive)	31.9 µM (inactive)	98.9 µM (inactive)	99.1 µM (inactive)	5.24 µM (inactive)
Cc1ccc(C2=Nc3ccccc3SC(c3cccc4c3OCO4)C2)cc1 (centres undefined)	23.9 µM (inactive)	18.3 µM (inactive)	–	17.4 µM (inactive)	33.1 µM (inactive)	–	16.7 µM (inactive)	18 µM (inactive)	17.9 µM (inactive)	21.8 µM (inactive)	21.2 µM (inactive)	17.7 µM (inactive)	21.1 µM (inactive)	17.6 µM (inactive)	16.2 µM (inactive)	21.2 µM (inactive)	18 µM (inactive)	20.3 µM (inactive)
COC(=O)C1=C(C(=O)OC)C2(C)OC1C(=O)C21CC1 (centres undefined)	> 100 µM (inactive)	24.1 µM (inactive)	19.8 µM (inactive)	16.7 µM (inactive)	> 100 µM (inactive)	–	23.2 µM (inactive)	15.3 µM (inactive)	19.5 µM (inactive)	> 100 µM (inactive)	24 µM (inactive)	16.9 µM (inactive)	54.5 µM (inactive)	–	> 100 µM (inactive)	> 10 µM (inactive)	57.1 µM (inactive)	–
CC(C)=CCC/C(C)=C/CC/C(C)=C/Cc1c(O)c2ccccc2oc1=O	65.6 µM (inactive)	> 100 µM (inactive)	89.1 µM (inactive)	99.1 µM (inactive)	> 100 µM (inactive)	> 100 µM (inactive)	> 100 µM (inactive)	> 100 µM (inactive)	> 100 µM (inactive)	–	> 100 µM (inactive)	91.6 µM (inactive)	> 100 µM (inactive)	> 100 µM (inactive)	–	> 100 µM (inactive)	99.8 µM (inactive)	63.7 µM (inactive)
Cc1cc(NS(=O)(=O)c2ccc(NC(=O)c3ccc(Cl)c4c(Nc5ccc(S(=O)(=O)N=C(N)N)cc5)c5ccccc5nc34)cc2)no1	–	–	36 µM (inactive)	–	21.6 µM (inactive)	–	–	> 100 µM (inactive)	15.2 µM (inactive)	> 100 µM (inactive)	38.2 µM (inactive)	59.7 µM (inactive)	42.3 µM (inactive)	87.5 µM (inactive)	–	> 100 µM (inactive)	> 100 µM (inactive)	44.3 µM (inactive)
COC(=O)/C(=N\NC(=S)NN)C(C(=O)C(=O)Nc1ccccc1C(N)=O)c1nc2ccccc2nc1O (centres undefined)	> 100 µM (inactive)	> 100 µM (inactive)	> 100 µM (inactive)	–	–	43.5 µM (inactive)	> 100 µM (inactive)	> 100 µM (inactive)	> 100 µM (inactive)	> 100 µM (inactive)	> 100 µM (inactive)	> 100 µM (inactive)	> 100 µM (inactive)	> 100 µM (inactive)	> 100 µM (inactive)	> 100 µM (inactive)	> 100 µM (inactive)	> 100 µM (inactive)
O=C1CCN2C(=Nc3cccc4cccc2c34)N1	> 100 µM (inactive)	> 100 µM (inactive)	> 100 µM (inactive)	> 100 µM (inactive)	> 100 µM (inactive)	–	> 100 µM (inactive)	> 100 µM (inactive)	> 100 µM (inactive)	> 100 µM (inactive)	> 100 µM (inactive)	> 100 µM (inactive)	> 100 µM (inactive)	> 100 µM (inactive)	> 100 µM (inactive)	> 100 µM (inactive)	> 100 µM (inactive)	> 100 µM (inactive)
Cc1nc(N)sc1C(=O)/C=C/c1ccc(/C=C/C(=O)c2sc(NC(=O)CCCCCCCCC(=O)Nc3nc(C)c(C(=O)/C=C/c4ccc(/C=C/C(=O)c5sc(N)nc5C)cc4)s3)nc2C)cc1	> 100 µM (inactive)	> 100 µM (inactive)	92 µM (inactive)	> 100 µM (inactive)	> 100 µM (inactive)	< 0.01 µM (active)	> 100 µM (inactive)	> 100 µM (inactive)	> 100 µM (inactive)	> 100 µM (inactive)	> 100 µM (inactive)	> 10 µM (inactive)	> 100 µM (inactive)	52.8 µM (inactive)	–	> 100 µM (inactive)	> 100 µM (inactive)	27.7 µM (inactive)
COc1cccc(-c2cc(O)c3ccccc3n2)c1	6.92 µM (inactive)	4.93 µM (inactive)	5.53 µM (inactive)	2.98 µM (inactive)	8.18 µM (inactive)	–	17.2 µM (inactive)	4.82 µM (inactive)	6.55 µM (inactive)	7.43 µM (inactive)	6.24 µM (inactive)	5.45 µM (inactive)	10.3 µM (inactive)	> 100 µM (inactive)	4.48 µM (inactive)	> 100 µM (inactive)	2.32 µM (inactive)	4.06 µM (inactive)
CCOC(=O)C(NO)C(Sc1ccccc1)c1ccc(OC)cc1 (centres undefined)	38.6 µM (inactive)	35.3 µM (inactive)	34.9 µM (inactive)	–	88.3 µM (inactive)	> 100 µM (inactive)	> 100 µM (inactive)	> 100 µM (inactive)	42.1 µM (inactive)	> 100 µM (inactive)	> 100 µM (inactive)	55.3 µM (inactive)	> 100 µM (inactive)	> 100 µM (inactive)	30.7 µM (inactive)	> 100 µM (inactive)	65.9 µM (inactive)	37.6 µM (inactive)
CC(=O)OC1C(CCl)OC(N=[N+]=[N-])C(OC(C)=O)C1OC(C)=O (centres undefined)	> 100 µM (inactive)	> 100 µM (inactive)	> 100 µM (inactive)	> 100 µM (inactive)	> 100 µM (inactive)	–	> 100 µM (inactive)	> 100 µM (inactive)	> 100 µM (inactive)	–	> 100 µM (inactive)	> 100 µM (inactive)	> 100 µM (inactive)	> 100 µM (inactive)	> 100 µM (inactive)	> 100 µM (inactive)	> 100 µM (inactive)	> 100 µM (inactive)
O=C(Cc1nc2ccccc2s1)C(=O)Nc1ccc(Cl)cc1Cl	> 100 µM (inactive)	> 100 µM (inactive)	> 100 µM (inactive)	–	39.9 µM (inactive)	65.8 µM (inactive)	> 100 µM (inactive)	> 100 µM (inactive)	> 100 µM (inactive)	> 100 µM (inactive)	> 100 µM (inactive)	> 100 µM (inactive)	> 100 µM (inactive)	> 100 µM (inactive)	–	> 100 µM (inactive)	> 100 µM (inactive)	–
COc1cc(N)c2[nH]c3c(C)ccc(C)c3c2c1	> 100 µM (inactive)	> 100 µM (inactive)	> 100 µM (inactive)	> 100 µM (inactive)	> 100 µM (inactive)	–	–	> 100 µM (inactive)	> 100 µM (inactive)	> 100 µM (inactive)	> 100 µM (inactive)	> 100 µM (inactive)	> 100 µM (inactive)	> 100 µM (inactive)	> 100 µM (inactive)	> 100 µM (inactive)	> 100 µM (inactive)	–
